Patent US20230026163A1, “ANTICANCER COMPOUND AND MEDICAL USE THEREOF” (ASCENTAWITS PHARMACEUTICALS, LTD., priority 2019, published 2023)

What was measured:
[1] = tested on: H460 cell line; assay: Cytotoxicity comparison of TH-302 and compound 01 on H460 at different test times; type: cell-based, human; details: for IC50: Homo sapiens, NCI-H460, 2 h, H460, exposure for 2 hours, air
Excerpt: The cytotoxicity test results of TH-302 and compound 01 on H460 cell line under different test times in the same laboratory, the same operator, and the same experimental conditions.

[2] = tested on: UV41 cell line; assay: Cytotoxicity on UV41 cell line with DNA repair gene mutation (2 hours exposure, AlamarBlue); type: cell-based, Chinese hamster; details: Cricetulus griseus; UV41, 2 hours exposure, then 70 hours, normoxic
Description: UV41 cell line is a derivative of CHO-AA8 cell line, derived from the UV-sensitive line of AA8. The cell line is a cell line with damaged homologous recombination DNA repair enzymes and damaged nucleotide excision repair enzymes caused by mutations in ERCC4/XPF gene of DNA.
Specifically, the exponentially growing cells were seeded in 96-well plates at a density of 4×10^3 cells/well and incubated at 37° C., in 5% CO2, 95% air, and 100% relative humidity. Next, 24 hours later, the test compounds were added. The test compounds were dissolved in 100% DMSO at 200 times the desired final test concentration. Upon addition of the test compounds, the test compounds were further diluted with the complete medium to 4 times the desired final concentration. Aliquots of 50 μL of the compounds at specific concentrations were added to the microwells containing 150 μL of medium to obtain the final compound concentrations as reported. After the test compounds were added, the plates were incubated for an addition 2 hours at 37° C., in 5% CO2, 95% air, and 100% relative humidity. Then, the compounds were washed off, and fresh medium was added to the plates. The plates were incubated for an addition 70 hours at 37° C., in 5% CO2, 95% air, and 100% relative humidity. At the end of this incubation, AlamarBlue reagent was used to quantify viable cells.

[3] = Hepatomicrosome stability, mouse; details: for Remaining percentage after 30 minutes: Mouse, 2 μM
Description: 1a) With NADPH: 10 μL of 20 mg/mL of hepatomicrosome and 40 μL of 10 mM of NADPH were added to medium. The final concentrations of hepatomicrosome and NADPH were 0.5 mg/mL and 1 mM, respectively.
1b) Without NADPH: 10 μL of 20 mg/mL hepatomicrosome and 40 μL of ultra-pure H2O were added to medium. The final concentration of hepatomicrosome was 0.5 mg/mL.
3) 3) Aliquots of 50 μL from the reaction solutions at 0 minute and 30 minutes were taken. The reaction solutions were stopped by adding 4 volumes of cold acetonitrile and 4 internal standards (IS internal standard, 100 nM of Alprazolam, 200 nM of caffeine, 200 nM of Labetalol, and 2 μM of Ketoprofen) to stop the reaction solution. The samples were centrifuged at 3,220 g for 40 minutes. Aliquots of 100 μL of the supernatants were mixed with 100 μL of ultra-pure H2O. Then, the mixtures were used for LC-MS/MS analysis. All experiments were performed in duplicate. The test results were as follow.

[4] = Plasma stability, human; type: in vitro ADME; details: 5 μM, 37° C., after 30 minutes
Description: Frozen plasma was melted immediately in a water bath at 37° C. […] The supernatants were collected into new tubes, respectively. pH values of the plasma were checked and recorded. Note: a, no more 2 times melted plasma was used since the sample was received; b, the plasma in pH 7 to pH 8 was used.
1 mM of working solution of the test compounds and the control compound, propantheline, were prepared in DMSO. 1 mM of working solution of the control compound in […] was prepared in acetonitrile. 4 μL of the working solutions were added to 796 μL of pre-incubated plasma respectively to achieve a final concentration of 5 μM. The final concentration of solvent was 0.5%.
Aliquots of 50 μL of labelled plasma were transferred to new tubes and incubated in a water bath at 37° C. at approximately 60 rpm for 2 hours. The test was performed in duplicate. […] 50 μL of the labeled plasma was added to new tubes containing 300 μL of the quench solution of room temperature, i.e., the sample with a preparation time of 0. The samples were vortexed to mix for 5 minutes. […] 100 μL of the supernatant was transferred to new plates.

[5] = tested on: NCI-H460 cells; assay: CDX model, subcutaneously transplanted human lung cancer; type: in vivo, BALB/c nude mice; details: for Relative tumor inhibition rate TGI (%): 31st day after inoculation
Description: BALB/c nude mice were subcutaneously inoculated with human lung cancer cells, NCI-H460 cells, to establish a subcutaneously transplanted tumor model of human lung cancer. The experiment was divided into a 20 mg/kg of the test drug compound 01 group, a 40 mg/kg of the test drug compound 01 group, and a vehicle control group with 10% of ethanol+10% of polyoxyethylene (35) castor oil, Cremophor EL+80% of 5% of glucose injection (pH7.4), and 6 mice in each group. […] The 40 mg/kg of the test drug compound 01 group was administered by tail vein injection, once every three weeks, for a total of 2 administrations, and observed for a week after the second administration. The 20 mg/kg of the test drug compound 01 group was administered by intraperitoneal injection once a day for 5 consecutive days and observed for 24 days. The efficacy was evaluated based on the relative tumor inhibition rate TGI (%). The safety evaluation was performed based on changes in animal body weight and mortality. The administered doses of compound 01 were determined based on the MTD experiment.
The tumor volume of each group of mice was measured on different days respectively, and the average value was obtained.

Work on `O=[N+]([O-])c1ccc(C(OP(=O)(N2CC2)N2CC2)C(F)(F)F)c2ccccc12` (stereo not shown) [Compound 01] yielded an IC50 ([1]; Time 1) of 0.7 µM, an IC50 ([1]; Time 2) of 0.3 µM and an IC50 ([1]; Time 3) of 0.5 µM. The “Multiple TH-302/Compound 01” value ([1]; Time 1) was 32.9, the “Multiple TH-302/Compound 01” value ([1]; Time 2) was 26.7 and the “Multiple TH-302/Compound 01” value ([1]; Time 3) was 6.6. For the same molecule, the IC50 [2] was 0.34 µM, the “Remaining percentage after 30 minutes” value ([3]; with NADPH) was 102.89% and the “Remaining percentage after 30 minutes” value ([3]; without NADPH) was 103.07%. For the same molecule, the “Stability in hepatomicrosomes (conclusion)” value ([3]; mice) was “relatively stable”, the Remaining percentage [4] was 68.68% and the “Relative tumor inhibition rate TGI (%)” value ([5]; 20 mg/kg, QD×5×1 week, IP, Exp. group 8) was 76.22%. The “Relative tumor inhibition rate TGI (%)” value ([5]; 40 mg/kg, Q3W×2, IV, Exp. group 7) was 66.87%, the Tumor volume ([5]; day 7, Exp. group 7, 40 mg/kg, Q3W×2, IV) was 143.84 mm^3 and the Tumor volume ([5]; day 7, Exp. group 8, 20 mg/kg, QD×5×1 week, IP) was 144.63 mm^3. For the same molecule, the Tumor volume ([5]; day 10, Exp. group 7, 40 mg/kg, Q3W×2, IV) was 184.06 mm^3, the Tumor volume ([5]; day 10, Exp. group 8, 20 mg/kg, QD×5×1 week, IP) was 173.09 mm^3 and the Tumor volume ([5]; day 14, Exp. group 7, 40 mg/kg, Q3W×2, IV) was 153.75 mm^3. The Tumor volume ([5]; day 14, Exp. group 8, 20 mg/kg, QD×5×1 week, IP) was 152.99 mm^3, the Tumor volume ([5]; day 17, Exp. group 7, 40 mg/kg, Q3W×2, IV) was 159.72 mm^3 and the Tumor volume ([5]; day 17, Exp. group 8, 20 mg/kg, QD×5×1 week, IP) was 130.06 mm^3. It also gave a Tumor volume ([5]; day 21, Exp. group 7, 40 mg/kg, Q3W×2, IV) of 218.13 mm^3, a Tumor volume ([5]; day 21, Exp. group 8, 20 mg/kg, QD×5×1 week, IP) of 129.66 mm^3 and a Tumor volume ([5]; day 24, Exp. group 7, 40 mg/kg, Q3W×2, IV) of 291.07 mm^3. For the same molecule, the Tumor volume ([5]; day 24, Exp. group 8, 20 mg/kg, QD×5×1 week, IP) was 164.63 mm^3, the Tumor volume ([5]; day 28, Exp. group 7, 40 mg/kg, Q3W×2, IV) was 520.17 mm^3 and the Tumor volume ([5]; day 28, Exp. group 8, 20 mg/kg, QD×5×1 week, IP) was 272.20 mm^3. It also gave a Tumor volume ([5]; day 31, Exp. group 7, 40 mg/kg, Q3W×2, IV) of 580.70 mm^3, a Tumor volume ([5]; day 31, Exp. group 8, 20 mg/kg, QD×5×1 week, IP) of 447.50 mm^3 and a Tumor volume ([5]; day 35, Exp. group 7, 40 mg/kg, Q3W×2, IV) of 447.32 mm^3. It also gave a Tumor volume ([5]; day 35, Exp. group 8, 20 mg/kg, QD×5×1 week, IP) of 651.58 mm^3.
